Measurements from ChEMBL document CHEMBL5233210, “Pyrazolone structural motif in medicinal chemistry: Retrospect and prospect” (Eur J Med Chem, 2020).
Converted amounts (≈) assume the structure as drawn.

Key:
Pseudomonas aeruginosa = assay: Antibacterial activity against Pseudomonas aeruginosa assessed as diameter of inhibition zone at 100 ppm; assay type: functional; settings: read-out: DIZ
Bacillus subtilis = assay: Antibacterial activity against Bacillus subtilis assessed as diameter of inhibition zone at 100 ppm; assay type: functional; settings: read-out: DIZ
Aspergillus niger = assay: Antifungal activity against Aspergillus niger assessed as diameter of inhibition zone at 100 ppm; assay type: functional; settings: read-out: DIZ
Escherichia coli = assay: Antibacterial activity against Escherichia coli assessed as diameter of inhibition zone at 100 ppm; assay type: functional; settings: read-out: DIZ
Ovis aries = species: Ovis aries; assay: Selectivity index, ratio of IC50 for ovine COX-1 to IC50 for ovine COX-2
[1] = biological target: T1, Prostaglandin G/H synthase 2 (Ovis aries, UniProt P79208); assay: Inhibition of ovine COX-2
T1 sequence (P79208 whole entry): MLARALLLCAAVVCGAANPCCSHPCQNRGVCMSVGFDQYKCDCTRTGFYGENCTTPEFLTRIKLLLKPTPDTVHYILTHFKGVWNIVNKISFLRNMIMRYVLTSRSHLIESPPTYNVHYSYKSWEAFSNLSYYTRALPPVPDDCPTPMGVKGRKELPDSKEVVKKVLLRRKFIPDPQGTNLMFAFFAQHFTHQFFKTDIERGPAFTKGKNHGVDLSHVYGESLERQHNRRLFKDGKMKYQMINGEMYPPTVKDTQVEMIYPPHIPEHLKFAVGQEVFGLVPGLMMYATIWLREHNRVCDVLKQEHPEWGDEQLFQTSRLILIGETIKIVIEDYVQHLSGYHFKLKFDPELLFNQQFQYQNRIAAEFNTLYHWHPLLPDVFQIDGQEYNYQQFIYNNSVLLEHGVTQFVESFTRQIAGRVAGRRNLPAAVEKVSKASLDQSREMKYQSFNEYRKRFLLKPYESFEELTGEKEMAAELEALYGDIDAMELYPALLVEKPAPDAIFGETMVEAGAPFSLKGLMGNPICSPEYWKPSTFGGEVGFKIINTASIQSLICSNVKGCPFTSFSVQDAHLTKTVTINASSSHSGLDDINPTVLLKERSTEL

[2] = biological target: T2, Prostaglandin G/H synthase 1 (Ovis aries, UniProt P05979); assay: Inhibition of ovine COX-1
T2 sequence (P05979 whole entry): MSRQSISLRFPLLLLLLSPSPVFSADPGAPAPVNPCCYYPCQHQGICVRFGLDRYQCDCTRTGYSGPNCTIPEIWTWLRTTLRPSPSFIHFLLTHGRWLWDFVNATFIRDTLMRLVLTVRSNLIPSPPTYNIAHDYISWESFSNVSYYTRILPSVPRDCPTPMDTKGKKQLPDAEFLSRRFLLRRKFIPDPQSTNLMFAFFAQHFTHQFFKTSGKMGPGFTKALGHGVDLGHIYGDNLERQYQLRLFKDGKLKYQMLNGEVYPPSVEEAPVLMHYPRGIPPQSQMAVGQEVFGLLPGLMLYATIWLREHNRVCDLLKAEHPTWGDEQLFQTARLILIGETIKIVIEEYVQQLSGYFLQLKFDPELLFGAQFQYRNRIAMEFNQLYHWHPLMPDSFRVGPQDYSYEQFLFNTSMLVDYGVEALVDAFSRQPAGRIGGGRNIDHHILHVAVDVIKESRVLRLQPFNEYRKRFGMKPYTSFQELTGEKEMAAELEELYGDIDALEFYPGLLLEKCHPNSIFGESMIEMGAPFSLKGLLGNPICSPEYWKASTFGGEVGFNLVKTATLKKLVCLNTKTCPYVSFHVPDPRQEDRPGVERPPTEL

Mus musculus [3] = species: Mus musculus; assay: Antidepressant activity in Swiss albino mouse assessed as decrease in immobility time by forced swim test (reference value: 203.3 sec); assay type: functional
Mus musculus [4] = species: Mus musculus; assay: Antidepressant activity in Swiss albino mouse assessed as change in immobility by tail suspension test; assay type: functional
Mus musculus [5] = species: Mus musculus; assay: Antidepressant activity in Swiss albino mouse assessed as change in immobility by forced swim test; assay type: functional
Mus musculus [6] = species: Mus musculus; assay: Antidepressant activity in Swiss albino mouse assessed as decrease in immobility time by tail suspension test (reference value: 185.8 sec); assay type: functional
[7] = biological target: Amine oxidase [flavin-containing] A (Rattus norvegicus, UniProt P21396); assay: Inhibition of rat brain synaptosome MAO-A; assay type: subcellular
Amine oxidase [flavin-containing] A (Rattus norvegicus, UniProt P21396), sequence (P21396 whole entry): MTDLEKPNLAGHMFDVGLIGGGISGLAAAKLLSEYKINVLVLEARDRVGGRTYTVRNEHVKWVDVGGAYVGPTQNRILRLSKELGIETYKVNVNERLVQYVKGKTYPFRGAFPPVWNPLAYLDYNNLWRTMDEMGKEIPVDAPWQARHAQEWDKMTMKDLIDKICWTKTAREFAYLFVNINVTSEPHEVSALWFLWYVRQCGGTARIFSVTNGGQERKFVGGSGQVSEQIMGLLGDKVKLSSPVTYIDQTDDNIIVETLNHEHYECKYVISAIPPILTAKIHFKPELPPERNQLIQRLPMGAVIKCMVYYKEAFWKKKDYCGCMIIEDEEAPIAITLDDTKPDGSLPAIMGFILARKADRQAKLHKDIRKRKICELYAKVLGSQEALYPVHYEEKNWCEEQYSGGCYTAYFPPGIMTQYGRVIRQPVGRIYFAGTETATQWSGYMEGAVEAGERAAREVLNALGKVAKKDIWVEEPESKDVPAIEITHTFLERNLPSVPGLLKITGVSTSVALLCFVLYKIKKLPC

[8] = biological target: T3, Amine oxidase [flavin-containing] B (Homo sapiens, UniProt P27338); assay: Inhibition of human MAO-B
T3 sequence (P27338 whole entry): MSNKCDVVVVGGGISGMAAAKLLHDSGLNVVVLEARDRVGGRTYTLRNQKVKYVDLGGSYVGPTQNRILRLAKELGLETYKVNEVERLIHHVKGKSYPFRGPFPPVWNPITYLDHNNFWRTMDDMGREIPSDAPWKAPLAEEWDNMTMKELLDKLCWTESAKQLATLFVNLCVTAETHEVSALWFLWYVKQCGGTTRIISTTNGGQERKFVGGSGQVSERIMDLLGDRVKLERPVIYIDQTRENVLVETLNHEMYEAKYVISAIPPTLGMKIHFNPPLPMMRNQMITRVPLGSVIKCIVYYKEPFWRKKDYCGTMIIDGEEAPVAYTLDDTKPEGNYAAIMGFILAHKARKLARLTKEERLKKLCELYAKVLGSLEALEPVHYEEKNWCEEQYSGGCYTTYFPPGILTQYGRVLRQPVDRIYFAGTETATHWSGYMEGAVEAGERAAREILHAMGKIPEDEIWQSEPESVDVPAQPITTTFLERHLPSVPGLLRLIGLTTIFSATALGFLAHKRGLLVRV

[9] = biological target: T4, Amine oxidase [flavin-containing] A (Homo sapiens, UniProt P21397); assay: Inhibition of human MAO-A
T4 sequence (P21397 whole entry): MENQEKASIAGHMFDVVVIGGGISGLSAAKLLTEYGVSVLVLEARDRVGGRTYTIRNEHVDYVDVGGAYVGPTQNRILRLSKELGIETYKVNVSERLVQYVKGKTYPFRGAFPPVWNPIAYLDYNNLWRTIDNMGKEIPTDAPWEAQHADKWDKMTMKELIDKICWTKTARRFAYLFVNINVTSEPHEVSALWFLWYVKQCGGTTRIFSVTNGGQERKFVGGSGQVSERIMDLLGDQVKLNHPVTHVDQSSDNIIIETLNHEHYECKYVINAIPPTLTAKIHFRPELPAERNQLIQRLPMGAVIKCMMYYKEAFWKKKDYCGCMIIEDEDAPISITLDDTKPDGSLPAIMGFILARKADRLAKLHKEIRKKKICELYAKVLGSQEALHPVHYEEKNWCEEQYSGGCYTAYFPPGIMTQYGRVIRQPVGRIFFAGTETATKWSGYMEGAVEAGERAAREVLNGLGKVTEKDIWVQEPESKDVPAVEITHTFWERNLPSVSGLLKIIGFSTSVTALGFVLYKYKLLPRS

[10] = biological target: Amine oxidase [flavin-containing] B (Rattus norvegicus, UniProt P19643); assay: Inhibition of rat brain synaptosome MAO-B; assay type: subcellular
Amine oxidase [flavin-containing] B (Rattus norvegicus, UniProt P19643), sequence (P19643 whole entry): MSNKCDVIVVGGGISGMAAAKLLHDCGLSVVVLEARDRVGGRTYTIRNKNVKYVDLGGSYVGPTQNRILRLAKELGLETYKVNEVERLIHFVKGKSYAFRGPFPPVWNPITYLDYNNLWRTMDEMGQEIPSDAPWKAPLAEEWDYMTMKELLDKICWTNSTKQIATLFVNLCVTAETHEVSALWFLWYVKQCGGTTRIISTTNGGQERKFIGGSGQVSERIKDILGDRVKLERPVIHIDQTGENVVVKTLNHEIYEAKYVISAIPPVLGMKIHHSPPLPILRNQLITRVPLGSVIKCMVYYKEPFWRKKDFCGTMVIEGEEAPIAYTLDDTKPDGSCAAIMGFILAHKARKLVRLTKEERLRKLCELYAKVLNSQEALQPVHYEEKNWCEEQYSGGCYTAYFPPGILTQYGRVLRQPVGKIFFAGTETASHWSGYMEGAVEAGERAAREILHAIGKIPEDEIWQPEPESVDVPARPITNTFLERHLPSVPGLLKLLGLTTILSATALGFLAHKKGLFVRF

Homo sapiens = species: Homo sapiens; assay: Selectivity index, ratio of Ki for human MAO-B to Ki for human MAO-A
[11] = biological target: T3, Amine oxidase [flavin-containing] B; assay: Inhibition of MAO-B (unknown origin)
[12] = biological target: Cholinesterase (Equus caballus) (UniProt P81908); assay: Inhibition of equine serum BChE at 10^-3 M relative to control; assay type: cell-free; settings: dose 1.0 10^-3M
Cholinesterase (Equus caballus), sequence (P81908 whole entry): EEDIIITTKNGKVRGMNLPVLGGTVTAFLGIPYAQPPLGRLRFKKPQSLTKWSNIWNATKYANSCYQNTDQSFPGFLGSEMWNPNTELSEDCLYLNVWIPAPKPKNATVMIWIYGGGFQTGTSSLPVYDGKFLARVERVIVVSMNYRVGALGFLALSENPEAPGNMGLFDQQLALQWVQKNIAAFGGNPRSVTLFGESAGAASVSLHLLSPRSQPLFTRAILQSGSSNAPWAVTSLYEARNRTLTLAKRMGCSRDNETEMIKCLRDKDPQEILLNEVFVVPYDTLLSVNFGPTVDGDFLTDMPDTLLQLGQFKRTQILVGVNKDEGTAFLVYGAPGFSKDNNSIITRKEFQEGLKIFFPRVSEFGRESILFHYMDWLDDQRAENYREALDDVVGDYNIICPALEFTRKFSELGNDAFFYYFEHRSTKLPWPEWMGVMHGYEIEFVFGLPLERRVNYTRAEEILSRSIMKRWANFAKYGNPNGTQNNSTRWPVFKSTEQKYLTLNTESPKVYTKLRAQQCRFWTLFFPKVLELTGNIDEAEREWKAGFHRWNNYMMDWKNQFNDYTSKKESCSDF

[13] = biological target: T4, Amine oxidase [flavin-containing] A; assay: Inhibition of MAO-A (unknown origin) relative to control
HepG2 = assay: Cytotoxicity against human HepG2 cells; assay type: functional, cell-based
PC-3 = assay: Cytotoxicity against human PC-3 cells; assay type: functional, cell-based
MCF7 = assay: Cytotoxicity against human MCF7 cells; assay type: functional, cell-based
Ehrlich [14] = assay: Cytotoxicity against mouse Ehrlich ascites cells assessed as dead cells at 25 ug/ml; assay type: functional; settings: dose 25 µg/ml
Ehrlich [15] = assay: Cytotoxicity against mouse Ehrlich ascites cells assessed as dead cells at 100 ug/ml; assay type: functional; settings: dose 100 µg/ml
Ehrlich [16] = assay: Cytotoxicity against mouse Ehrlich ascites cells assessed as dead cells at 500 ug/ml; assay type: functional; settings: dose 500 µg/ml
PC-12 [17] = assay: Cytotoxicity against rat PC-12 cells; assay type: functional; settings: read-out: LD50 (the source's name)
PC-12 [18] = assay: Anti amyotrophic lateral sclerosis activity in rat PC-12 cells assessed as decrease in G93A SOD1 aggregate formation; assay type: functional; settings: read-out: ED50 (the source's name)
Rattus norvegicus [19] = assay: Antiinflammatory activity against rat assessed as inhibition of carrageenan-induced paw edema; assay type: functional
Rattus norvegicus [20] = assay: Antiinflammatory activity against rat assessed as inhibition of carrageenan-induced paw edema relative to control; assay type: functional; design: concentration or dose not given beside the values
[21] = Selectivity index, ratio of CC50 african green monkey Vero cells to IC50 for Mycobacterium tuberculosis; assay type: toxicity; settings: read-out: Ratio CC50/IC50
[22] = tested on: Mycobacterium tuberculosis; assay: Antibacterial activity against Mycobacterium tuberculosis; assay type: functional, organism-based

`Nc1cc(=O)n(-c2ccc([N+](=O)[O-])cc2[N+](=O)[O-])[nH]1` gave a zone of inhibition at 100 µg/mL (Pseudomonas aeruginosa) of 17.4 mm, a zone of inhibition at 100 µg/mL (Bacillus subtilis) of 18.1 mm and a zone of inhibition at 100 µg/mL (Aspergillus niger) of 15.2 mm. The zone of inhibition at 100 µg/mL (Escherichia coli) was 15.3 mm.
`NS(=O)(=O)c1ccc(N/N=C2/C=NN(c3ccccc3C(=O)O)C2=O)cc1` gave a Ratio IC50 (Ovis aries) of 5.69, an IC50 [1] of 660 nM and an IC50 [2] of 3760 nM.
For `CN(C)CCCN1c2ccccc2CCc2ccccc21` [IMIPRAMINE], the Time (Mus musculus [3]) was 94 s, the Activity (Mus musculus [4]) was -41.3% and the Activity (Mus musculus [5]) was -53.8%. For the same compound, the Time (Mus musculus [6]) was 109 s.
Work on `Cc1c(-c2cc(C#N)c(N)o2)c(=O)n(-c2ccccc2)n1C` yielded an IC50 [7] of 7.99 nM, a Ki [8] of 766 nM and a Ki [9] of 0.346 nM. For the same compound, the IC50 [10] was 45.4 nM and the Ratio Ki (Homo sapiens) was 2210.
For `Cc1c(/N=C/c2ccc(OCCCN(C)C)cc2)c(=O)n(-c2ccccc2)n1C`, the IC50 [11] was 49 nM, the inhibition [12] was 35.3% and the “inhibition (INH)” value [13] was 38.1%.
With `CC/C(=N/NC(=O)c1ccco1)c1c(C)nn(-c2ccccc2)c1O` the IC50 (HepG2) was 5.69 µg/mL (≈ 16.8 µM) and the IC50 (PC-3) was 6.8 µg/mL (≈ 20.1 µM).
`CC1=NN(C(=O)c2ccc3ccccc3c2)C(=O)C1/N=N/c1ccc(Cl)cc1Cl` (stereo not given) showed a Time (Mus musculus [3]) of 97.7 s, an Activity (Mus musculus [4]) of -38.4% and an Activity (Mus musculus [5]) of -51.9%. For the same compound, the Time (Mus musculus [6]) was 114.3 s.
Compound `O=c1[nH]cc(F)c(=O)[nH]1` [FLUOROURACIL] has an IC50 (MCF7) of 5.5 µg/mL (≈ 42.3 µM), an Activity (Ehrlich [14]) of 38.6% and an IC50 (HepG2) of 7.9 µg/mL (≈ 60.7 µM). The Activity (Ehrlich [15]) was 97.3%, the Activity (Ehrlich [16]) was 68% and the IC50 (PC-3) was 8.3 µg/mL (≈ 63.8 µM).
For `Cc1cc(SCc2cc(=O)[nH][nH]2)c(Cl)cc1Cl`, the CC50 (PC-12 [17]) was greater than 100000 nM and the EC50 (PC-12 [18]) was 400 nM.
Compound `NS(=O)(=O)c1ccc(N2N=C/C(=N/Nc3ccc(C(=O)O)cc3)C2=O)cc1` has an ED50 (Rattus norvegicus [19]) of 44 µmol/kg, a Ratio IC50 (Ovis aries) of 5.29 and an Activity (Rattus norvegicus [20]) of 72.72%. The IC50 [1] was 720 nM and the IC50 [2] was 3810 nM.
Work on `O=C1CC(NC(=O)CNc2ccc(Cl)cc2)=NN1` yielded a selectivity ratio [21] of 633 and an IC50 [22] of less than 370 nM.
Compound `Cc1c(C(=O)CC(C#N)C#N)c(=O)n(-c2ccccc2)n1C` has an IC50 [7] of 2340 nM, a Ki [8] of 121 nM and a Ki [9] of 0.014 nM. For the same compound, the IC50 [10] was 132 nM and the Ratio Ki (Homo sapiens) was 8670.
